In US7772252B2, “Heterocyclic substituted carbonyl derivatives and their use as dopamine D3 receptor ligands” (Aventis Pharmaceuticals Inc., priority 2001, dated 2010) one finds Ki data, which are given here for 44 molecules.

The target in this test is T1, cloned human dopamine D3 receptors (Homo sapiens, UniProt P35462).
T1 construct: expressed in transfected cells; membrane homogenate
T1 sequence (P35462 whole entry): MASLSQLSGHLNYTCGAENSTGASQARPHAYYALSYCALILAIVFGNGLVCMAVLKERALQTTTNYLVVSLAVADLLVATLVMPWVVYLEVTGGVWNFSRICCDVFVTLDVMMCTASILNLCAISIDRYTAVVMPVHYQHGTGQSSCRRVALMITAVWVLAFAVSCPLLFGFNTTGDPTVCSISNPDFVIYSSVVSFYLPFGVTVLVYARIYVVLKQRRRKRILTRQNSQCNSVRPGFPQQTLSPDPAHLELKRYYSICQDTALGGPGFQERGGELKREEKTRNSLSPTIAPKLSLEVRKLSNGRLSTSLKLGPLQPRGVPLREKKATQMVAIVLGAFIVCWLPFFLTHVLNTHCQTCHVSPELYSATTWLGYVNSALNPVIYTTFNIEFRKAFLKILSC
As to the kind of experiment: [N-Methyl-3H]Spiroperidol binding to cloned human dopamine D3 receptors. The settings on record: read-out: D3 Ki. The source says:
[N-Methyl-^3H]Spiroperidol Binding to Cloned Human Dopamine D3 Receptors
This assay measures the in vitro activity of compounds on cloned human dopamine (D3) receptors and predicts the direct dopamine-blocking properties of putative neuropsychiatric agents at human dopamine D3 receptors.
The D3 gene was isolated from a human striatal cDNA library (Stratagene). The gene was sequenced and sub-cloned into the expression vector RC/RSV (Invitrogen). CHO (Chinese Hamster Ovary) cells were stably transfected with 10 μg of the D3/RSV plasmid using the DOTAP method from Boehringer Mannheim and 72 clones that were G418 resistant were isolated. Using mRNA and binding displacement data a single high expressing clone was identified. This clone was then grown in large batches for the purpose of developing a 96 well format assay.
• 1. One plate (10 cm) with approximately 2-3 million D3 cells per plate is incubated with 1 ml of Trypsin-EDTA at room temperature for ˜2 min or until cells have lifted off plates. Four ml of Ham's F12+10% Fetal Bovine Serum+1% Penicillin/Streptomycin+G418 (400 μg/ml) medium are added to resuspend cells and 1 ml of this is added to each large plate (15 cm) containing 19 ml of the same medium as mentioned above. • 2. The 5 large plates are incubated at 37° C.+5% CO2 for ˜3 days or until the cells are confluent. • 3. After these plates are confluent, they are split into 10 large plates. Medium is aspirated off, 2 ml of Trypsin-EDTA are added to each plate and plates are incubated at RT for 2 min or until cells have lifted off the plate. Eight ml of the F12 medium (same medium as #1 above) are added to each plate (10 ml total) to resuspend the cells and 5 ml are transferred to the 2 new plates containing 15 ml of the F12 media. • 4. The 10 large plates are incubated at 37° C.+5% CO2 for ˜2 days or until the cells are confluent. • 5. The 10 large plates are split into 60 large plates (using Trypsin-EDTA as #3 except 4 ml of F12 medium are added to resuspend cells and 1 ml is aliquoted to 6 new plates containing 19 ml of F12 medium each). • 6. Plates are incubated at 37° C.+5% CO2 for ˜3 days or until cell are confluent. • 7. The 60 large plates are then split into 60 roller bottles (100-150 million cells/bottle). Medium is aspirated off, 2 ml of Trypsin-EDTA are added to each plate and incubated at RT for ˜2 minutes or until cells have lifted off plates. Eight ml of F12 medium are added to each plate to resuspend cells and the entire 10 ml are added to 1 roller bottle containing 90 ml of the F12 medium. • 8. The 60 roller bottles are immediately placed on their sides and transferred to the roller bottle incubator. They are incubated at 37° C.+5% CO2 for ˜3-5 days. Cells are spun at 30-40% motor speed in the Form a incubator. • 9. Medium is poured off and cells are washed 2× in PBS. • 10. Cells are then scraped off in 20 ml of PBS and the bottles are rinsed again with 5 ml of PBS to remove any remaining cells. Cells are stored on ice before membrane preparation. • 11. The yield for 60 D3 roller bottles has varied from ˜260-500 mg. • Note: All tissue culture reagents are from Gibco-BRL. C. Membrane Preparation
The cells are harvested into 250 ml centrifuge tubes with 100 volumes of cold phosphate buffered saline (PBS) and spun down (1200×G for 10 min at 4° C.). The medium is removed and 100 ml PBS are added to each centrifuge tube, cells are resuspened and spun down again. The PBS is removed and the final pellet is homogenized in an appropriate volume of 10% DMSO with a polytron on ice at a medium setting.
A 200 μl sample membrane homogenate is added to 200 μl of 1% SDS, vortexed and allowed to stand for 5 min. Aliquots (25, 50 and 100 μl) of this mixture are assayed in duplicate following the standard Bio-Rad DC protein assay protocol (kit catalog number 500-0112) and using reagent S. Absorbance readings are made at 750 nm (note: the most accurate protein OD readings are between 0.1-0.5 units). […]
Take `O=C([C@@H]1C[C@H]1CN1CCC(c2noc3ccc(C(F)(F)F)cc23)CC1)N1CCCC(Cn2ccnc2)C1` (mixture of isomers) [A002200835]: the Ki came to 0.4 nM.
Under `O=C([C@@H]1C[C@H]1CN1CCC(c2csc3cc(C(F)(F)F)ccc23)CC1)N1CCCC(Cn2ccnc2)C1` (mixture of isomers) [A002287512] stands 0.647 nM; under `O=C([C@@H]1C[C@H]1CN1CCC(c2nsc3cc(Br)ccc23)CC1)N1CCCC(Cn2ccnc2)C1` (mixture of isomers) [A002329099], 2.06 nM; under `O=C([C@@H]1C[C@H]1CN1CCN(c2csc3cc(C(F)(F)F)ccc23)CC1)N1CCCC(CN2CCCCC2)C1` (mixture of isomers) [A002437357], 14 nM.
The value for `O=C([C@@H]1C[C@H]1CN1CCN(c2csc3cc(C(F)(F)F)ccc23)CC1)N1CCCC(CN2CCCNCC2)C1` (mixture of isomers) [A002437358] was 8.86 nM; that for `CC1CCCCN1C(=O)[C@@H]1C[C@H]1CN1CCC(c2noc3ccsc23)CC1` (mixture of isomers) [compound 829462] was 9.65 nM; that for `CN1CCCC1CCNC(=O)[C@@H]1C[C@H]1CN1CCN(c2csc3cc(C(F)(F)F)ccc23)CC1` (mixture of isomers) [compound 831884] was 1.94 nM.
Under `O=C([C@@H]1C[C@H]1CN1CCN(c2csc3cc(C(F)(F)F)ccc23)CC1)N1CCCC(Cn2ccnc2)C1` (mixture of isomers) [compound 832268] stands 2.62 nM.
In the case of `O=C([C@@H]1C[C@H]1CN1CCC(c2noc3ccsc23)CC1)N1CCCC(Cn2ccnc2)C1` (mixture of isomers) [compound 832269], the Ki is 5.1 nM.
Under `CC(C)(C)OC(=O)N1CCCCC1CCNC(=O)[C@@H]1C[C@H]1CN1CCN(c2csc3cc(C(F)(F)F)ccc23)CC1` (mixture of isomers) [compound 832500] stands 161 nM.
Under `CC(C)(C)OC(=O)N1CCCC(CNC(=O)[C@@H]2C[C@H]2CN2CCN(c3csc4cc(C(F)(F)F)ccc34)CC2)C1` (mixture of isomers) [compound 832501] stands 41.4 nM; under `O=C(NCCC1CCCCN1)[C@@H]1C[C@H]1CN1CCN(c2csc3cc(C(F)(F)F)ccc23)CC1` (mixture of isomers) [compound 832503], 11.1 nM; under `O=C(NCC1CCCNC1)[C@@H]1C[C@H]1CN1CCN(c2csc3cc(C(F)(F)F)ccc23)CC1` (mixture of isomers) [compound 832504], 5.77 nM.
Under `CC(C)(C)OC(=O)N1CCCCC1CCNC(=O)[C@@H]1C[C@H]1CN1CCC(c2noc3ccsc23)CC1` (mixture of isomers) [compound 832533] stands 4.12 nM; under `CC1CCCCN1CCCNC(=O)[C@@H]1C[C@H]1CN1CCN(c2csc3cc(C(F)(F)F)ccc23)CC1` (mixture of isomers) [compound 832578], 25.8 nM; under `CC(=O)N1CCCCC1CCNC(=O)[C@@H]1C[C@H]1CN1CCN(c2csc3cc(C(F)(F)F)ccc23)CC1` (mixture of isomers) [compound 833064], 28.8 nM.
Consider `COc1cccc2c(C3CCN(C[C@@H]4C[C@H]4C(=O)N4CCCC(Cn5ccnc5)C4)CC3)noc12` (mixture of isomers) [compound 833910], for which the inhibitory constant (Ki) was 1.09 nM.
The value for `O=C([C@@H]1C[C@H]1CN1CCC(c2noc3c(C(F)(F)F)cccc23)CC1)N1CCCC(Cn2ccnc2)C1` (mixture of isomers) [compound 833911] was 1.26 nM.
Under `COc1ccc2c(c1)c(N1CCN(C[C@@H]3C[C@H]3C(=O)N3CCCC(Cn4ccnc4)C3)CC1)nn2C` (mixture of isomers) [compound 834173] stands 5.15 nM; under `O=C(NC1CCN(C(=O)Nc2ccc(Cl)cc2)CC1)C1CC1CN1CCC(c2noc3ccsc23)CC1` (racemic) [832575ES], 4.06 nM.
Take `O=C(NC1CCN(C(=O)Nc2ccc(F)cc2)CC1)C1CC1CN1CCC(c2noc3ccsc23)CC1` (racemic) [832576ES]: the Ki came out at 17.5 nM.
The value for `CC1CCC(N2CC(CN3CCN(c4csc5cc(C(F)(F)F)ccc45)CC3)CC2=O)CC1` (racemic) [833953A] was 88.8 nM; that for `CCCc1cc(N2CCN(CC3CC3C(=O)NC3CCC(CC)CC3)CC2)nc(C(C)(C)C)n1` (racemic) [compound 817274] was 4.49 nM; that for `CCCc1cc(N2CCN(CC3CC3C(=O)NC3CCC(C)CC3)CC2)nc(C(C)(C)C)n1` (racemic) [compound 817275] was 3.34 nM.
The value for `COc1ccc(N2CCN(CC3CC3C(=O)NC3CCC(C)CC3)C(C)C2)cc1` (racemic) [compound 827192] was 150 nM; that for `CC1CCC(NC(=O)C2CC2CN2CCN(Cc3ccccc3)CC2)CC1` (racemic) [compound 827202] was 177 nM.
The value for `CC1CCC(NC(=O)C2CC2CN2CCC(Cc3ccccc3)CC2)CC1` (racemic) [compound 827209] was 30.4 nM; that for `CC1CCC(NC(=O)C2CC2CN2CCC(n3c(=O)[nH]c4ccccc43)CC2)CC1` (racemic) [compound 827211] was 353 nM.
`CCC1CCC(NC(=O)C2CC2CN2CCN(C(=O)OC(C)(C)C)CC2)CC1` (racemic) [compound 827223]: the Ki was determined as 159 nM.
Under `CCC1CCC(NC(=O)C2CC2CN2CCN(c3ccc(OC)cc3)CC2C)CC1` (racemic) [compound 827231] stands 60.6 nM; under `CCC1CCC(NC(=O)C2CC2CN2CCN(CCc3ccccc3)CC2)CC1` (racemic) [compound 827237], 153 nM; under `CCC1CCC(NC(=O)C2CC2CN2CCN(Cc3ccc4c(c3)OCO4)CC2)CC1` (racemic) [compound 827240], 152 nM.
The value for `CCC1CCC(NC(=O)C2CC2CN2CCN(Cc3ccccc3)CC2)CC1` (racemic) [compound 827241] was 89.5 nM; that for `CCC1CCC(NC(=O)C2CC2CN2CCC(Cc3ccccc3)CC2)CC1` (racemic) [compound 827248] was 19.4 nM.
On to `CCC1CCC(NC(=O)C2CC2CN2CCC(n3c(=O)[nH]c4ccccc43)CC2)CC1` (racemic) [compound 827250], for which the inhibition constant Ki amounted to 45.2 nM.
The value for `O=C(NCc1ccco1)C1CC1CN1CCC(c2noc3ccsc23)CC1` (racemic) [compound 827393] was 391 nM.
The value for `O=C(C1CC1CN1CCC(c2noc3ccsc23)CC1)N1CCN(c2ncccn2)CC1` (racemic) [compound 827394] was 391 nM; that for `O=C(NC1CC2CCC1C2)C1CC1CN1CCC(c2noc3ccsc23)CC1` (racemic) [compound 827395] was 31.4 nM; that for `O=C(Nc1ccccn1)C1CC1CN1CCC(c2noc3ccsc23)CC1` (racemic) [compound 827397] was 111 nM.
The value for `CCC1CCC(NC(=O)C2CC2CN2CCC(c3noc4cc(Cl)ccc34)CC2)CC1` (racemic) [compound 829363] was 63.9 nM; that for `Cc1cc(NC(=O)C2CC2CN2CCC(c3noc4ccsc34)CC2)sn1` (racemic) [compound 829463] was 4.76 nM.
As for `CN1CCN(C(=O)C2CC2CN2CCC(c3noc4ccsc34)CC2)CC1` (racemic) [compound 829590], the Ki was determined as 109 nM.
On to `O=C(C1CC1CN1CCC(c2noc3ccsc23)CC1)N1CCN(C2CCCCC2)CC1` (racemic) [compound 829591], for which the inhibition constant (Ki) was found to be 72.4 nM.
Under `O=C(NC1CCCC1)C1CC1CN1CCC(c2noc3ccsc23)CC1` (racemic) [compound 829592] stands 42.3 nM.

The Ki is the dissociation constant of the complex between target and ligand, obtained from inhibition or displacement.
